Results reported in article PMC6719172, “Inhibition of CpLIP2 Lipase Hydrolytic Activity by Four Flavonols (Galangin, Kaempferol, Quercetin, Myricetin) Compared to Orlistat and Their Binding Mechanisms Studied by Quenching of Fluorescence” (Molecules, 2019).

Tests used:
CpLIP2 lipase [1] = target: T1, CpLIP2 lipase (Candida parapsilosis, UniProt Q8NIN8); assay: Fluorescence emission spectrum of CpLIP2 inhibited by THL; format: binding; details: 20-fold molar excess THL, pre-incubation at 25 °C for 30 min, excitation 285 nm
Description: As mentioned above, a mixture of 300 µL was pipetted in each well. 190 µL sodium phosphate buffer 50 mM, pH 7.0 with 100 µL of NaCl: EtOH (8:2, v/v) solution. […] In parallel, native and denatured lipases without THL were incubated in the same conditions. Denaturation of lipase was done by heating in water bath at 100 °C for 20 min.

CpLIP2 lipase [2] = target: T1, CpLIP2 lipase; assay: Fluorescence resonance energy transfer between CpLIP2 and flavonols (Förster theory); format: binding
Text: Fluorescence emission spectra of CpLIP2 lipase overlap the UV absorption spectrum of each flavonol studied, that may induce fluorescence resonance energy transfer (FRET) governed by the binding distance r between the protein behaving as energy donor and the flavonol energy acceptor. The binding distance r can be calculated via Förster theory with the following Equations (10) and (11):(10) E=1−F/ F0=R06/ R06+r^6 where E is the energy transfer efficiency, which is the photons fraction absorbed and transferred by the donor to the acceptor, F and F0 are the fluorescence intensities of donor (CpLIP2) in the presence or absence of acceptor (flavonol) at the same concentrations. The parameter r is the distance between acceptor and donor, and R0 is the Förster distance, which is the critical energy transfer distance when 50% of the excitation energy is transferred from the donor to the acceptor. […] The value of R0 ranges from 20–90 Å for biological macromolecules.

CpLIP2 lipase [3] = target: T1, CpLIP2 lipase; assay: Inhibition of CpLIP2 hydrolytic activity (ethyl oleate hydrolysis, GC); format: biochemical; details: for Ki: non-competitive or uncompetitive model
Description: The effect of inhibitor concentrations on the hydrolysis reaction rate in standard conditions was assumed to follow either a non-competitive or an uncompetitive model, corresponding to Equation (1):(1) Ki=I/ V0/Vi−1 where V0 and Vi are the initial rates of the reaction without or with inhibitor at concentration I.
Standard CpLIP2 hydrolytic activity measurement. Hydrolysis activities were determined by measuring the initial rates of fatty acid and esters production (µmol·min^−1·mL^−1), using ethyl oleate (C18:1, EE) as substrates. Specific activity is the total activity expressed in µmol·min^−1·mL^−1 in relation to protein concentration (mg·mL^−1). Experiments were conducted as described by. Hydrolysis of ethyl oleate (EO) was performed in aqueous emulsions at 30 °C. This emulsion consisted of 100 µmol·mL^−1 EO emulsified by sonication (Branson Sonifier 250, 20 s, 200 watts, 145 µm amplitude) in an aqueous solution of 20 g·L^−1 poly vinyl alcohol. The reactions of hydrolysis were prepared in glass test tube by adding 100 μL of ethyl oleate emulsion to 800 µL of sodium phosphate buffer 50 mM, pH 6.5; then the solutions were incubated in water bath at 30 °C for 5 min. The reaction was started by the addition of 100 µL of enzyme solution of CpLIP2 with final concentration 3 µg·mL^−1 with activity 2000 U/mL.
The enzyme solution was pre-incubated at 25 °C, with continuous stirring at 350 rpm. Pre-incubation was conducted with 1980 µL CpLIP2 lipase diluted in sodium NaH2PO4/Na2HPO4 phosphate buffer (50 mM, pH 6.5) containing 20 µL absolute EtOH at 2 different times (1 and 30 min). This pre-incubation phase was conducted in closed vials placed during 2 h on a Radleys StarFish Multi-Experiment Workstation. The reaction was conducted for 15 min at 30 °C, and then stopped by adding 950 µL of a mixture of ethanol/sulphuric acid (100:0.8, v/v). After the addition of 50 µL of internal standards (ethanolic solution of pentadecanoic acid and its ethyl and methyl esters, 1 µmol each), lipids were extracted from the mixture with 1 mL of hexane. Samples were then prepared for analyzing esters and free fatty acids by gas chromatography (GC) as follows. Hexane extract (200 µL) was reacted with 25 µL pyridine and 25 µL N-methyl-tri (methylsilyl)-trifluoroacetamide (MSTFA) as silylating agent. Mixtures were incubated in water bath at 50 °C for 20 min, and then samples were ready for analysis. Reaction rates were determined by the analysis of fat composition by capillary gas chromatography after 15 min reaction. It was checked that less than 30% of the total substrate was converted at the end of the 15 min reaction.
A Shimadzu GC 2010 plus gas chromatograph equipped with a flame ionization detector, an automatic sampler (injected volume 0.1 μL) and a split/splitless injector was used for analysis. The capillary column was a DB-5ht (15 m × 0.25 mm, Phenomenex, Le Pecq, France). The helium carrier flow was 1 mL min^−1and the split ratio was 1:50. Temperature conditions were, for reactions with individual substrates: injector 280 °C, detector 290 °C, oven 200–225 °C at 10 °C min^−1 then to 260 °C at 35 °C·min^−1 for ethyl ester (EE) and fatty acid (FA) of C18:1. Calibration curves were realized using emulsions of mixtures of FA and monoesters prepared according to the same protocol, without enzyme and alcohol.
In order to measure the residual lipase activity in the presence of potential inhibitors, the previous method was conducted in the presence and absence of the inhibitors. For each potential inhibitor, the lipase-catalyzed rate of hydrolysis was evaluated after a pre-incubation period between the lipase and the potential inhibitors, which were solubilized in absolute ethanol at 1% of final concentration. The preincubation was performed at 25 °C with continuous stirring at 350 rpm with different concentration of inhibitors (14, 27.5, 55 µM) which represented, respectively 25, 50, 100-fold the final lipase concentration (0.55 µM). […]

[4] = target: C. rugosa commercial lipase; design: method as in doi:10.1016/j.molcatb.2006.02.012; details: cited from earlier work

T1 sequence (Q8NIN8 entry or part of it): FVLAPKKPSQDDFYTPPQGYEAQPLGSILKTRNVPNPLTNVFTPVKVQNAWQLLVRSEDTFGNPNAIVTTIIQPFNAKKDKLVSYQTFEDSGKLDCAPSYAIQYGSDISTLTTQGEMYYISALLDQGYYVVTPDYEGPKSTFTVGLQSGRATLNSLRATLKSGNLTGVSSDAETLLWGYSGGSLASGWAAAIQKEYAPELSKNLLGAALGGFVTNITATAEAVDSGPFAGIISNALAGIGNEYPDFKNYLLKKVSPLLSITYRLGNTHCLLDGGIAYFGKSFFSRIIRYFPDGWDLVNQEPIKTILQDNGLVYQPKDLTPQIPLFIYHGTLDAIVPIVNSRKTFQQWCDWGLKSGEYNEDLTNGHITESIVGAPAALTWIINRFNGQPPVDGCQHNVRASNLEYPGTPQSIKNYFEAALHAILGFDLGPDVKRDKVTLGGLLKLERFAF

What does the source list for `CCCCCCCCCCC[C@@H](C[C@@H]1OC(=O)[C@H]1CCCCCC)OC(=O)[C@H](CC(C)C)NC=O` [THL, tetrahydrolipstatin, reference compound]?
blue shift of CpLIP2 fluorescence emission maximum (CpLIP2 lipase [1]): 4 nm; occurrence of FRET with CpLIP2 lipase (CpLIP2 lipase [2]): no FRET occurred; Ki (CpLIP2 lipase [3]; estimated after 1 min of pre-incubation): 1.2 µM; Ki (CpLIP2 lipase [3]; estimated after 30 min of pre-incubation): 0.6 µM; inhibition of CpLIP2 activity (CpLIP2 lipase [3]; after 1 min pre-incubation, concentration not given): ~100%; inhibition at 14 µM (CpLIP2 lipase [3]; read-out: inhibition of CpLIP2 catalytic activity): 90%; remaining activity at 14 µM (CpLIP2 lipase [3]; read-out: residual activity, 14 µM (25-fold molar excess), 1 min pre-incubation): 17.7%; remaining activity at 27.5 µM (CpLIP2 lipase [3]; read-out: residual activity, 27.5 µM (50-fold), 1 min pre-incubation): 3.9%; remaining activity at 55 µM (CpLIP2 lipase [3]; read-out: residual activity, 55 µM (100-fold), 1 min pre-incubation): 2.3%

With (±)-catechin [reference compound] as the molecule, how does the IC50 [4] read?
The IC50 was 7500 µM.
